The values that follow come from US20260308159A1, “BICYCLIC HETEROARYLAMIDES HAVING GPR68 MODULATING ACTIVITY” (RECURSION PHARMACEUTICALS, INC., priority 2023, published 2026).

Read-outs that look alike come from different tables or passages of the source.

For the test, the target named is T1, human GPR68 (Homo sapiens, UniProt Q15743).
T1 construct: encoding full-length human GPR68 (uniprot ID: Q15743); expressed in transfected cells; host or cells: HEK293T
Kind of test: GPR68 Biochemical Assay (Promega GloSensor cAMP assay, GPR68 antagonism). The test is classed as cell-based. As to conditions: 15 min. The method in brief: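 HEK293T cells transiently co-transfected with full-length human GPR68 and GloSensor plasmids, preloaded 60 min with GloSensor substrate in pH 8.0 buffer. Compounds (9-point half-log series, top 50 μM final, 0.5% DMSO) added with pH 5.5 buffer (~EC80-90 stimulation); luminescence read after 15 min at room temperature. IC50 from sigmoidal fit of % inhibition.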
Background: cAMP levels reflect the balance of adenylyl cyclase and phosphodiesterase activity.

Where [1] appears, read: HEK293T cells transiently expressing hGPR68, antagonism of pH 5.5 stimulated cAMP, read-out: hGPR68 IC50.

T1 sequence (Q15743 whole entry): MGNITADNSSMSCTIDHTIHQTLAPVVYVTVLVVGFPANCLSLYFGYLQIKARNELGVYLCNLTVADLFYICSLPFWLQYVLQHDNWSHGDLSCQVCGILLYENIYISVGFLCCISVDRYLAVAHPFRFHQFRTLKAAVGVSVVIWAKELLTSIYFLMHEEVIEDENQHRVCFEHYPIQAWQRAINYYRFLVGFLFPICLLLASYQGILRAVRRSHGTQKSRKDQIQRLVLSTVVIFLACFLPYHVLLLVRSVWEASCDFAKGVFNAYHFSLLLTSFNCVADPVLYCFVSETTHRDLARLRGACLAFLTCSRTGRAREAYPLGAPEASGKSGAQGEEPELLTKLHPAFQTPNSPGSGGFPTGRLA

What is called IC50 is the point on the concentration scale where inhibition reaches its midpoint. For the compound `COCc1nn2c(C(=O)Nc3cc(C(F)(F)F)ccn3)ccnc2c1C(N)=O` [Compound 65, 2-(Methoxymethyl)-N7-[4-(trifluoromethyl)-2-pyridyl]pyrazolo[1,5-a]pyrimidine-3,7-dicarboxamide], the IC50 under setting [1] was in the range of 50 to 500 nM.
The same measure, in the same setting: the figure for `COCc1nn2c(C(=O)Nc3ccc(F)c(F)c3)ccnc2c1C(N)=O` [Compound 66, N7-(3,4-difluorophenyl)-2-(methoxymethyl)pyrazolo[1,5-a]pyrimidine-3,7-dicarboxamide] is under 50 nM; for `COCc1nn2c(C(=O)NCc3ccc4c(c3)CCO4)ccnc2c1C(N)=O` [Compound 67, N7-(2,3-dihydrobenzofuran-5-ylmethyl)-2-(methoxymethyl)pyrazolo[1,5-a]pyrimidine-3,7-dicarboxamide] it is 50 to 500 nM; for `COCc1nn2c(C(=O)Nc3ccc(F)cc3F)ccnc2c1C(N)=O` [Compound 68, N7-(2,4-difluorophenyl)-2-(methoxymethyl)pyrazolo[1,5-a]pyrimidine-3,7-dicarboxamide] it is under 50 nM.
The same measure, in the same setting: with `COCc1nn2c(C(=O)NCc3ccccc3)ccnc2c1C(N)=O` [Compound 69, N7-benzyl-2-(methoxymethyl)pyrazolo[1,5-a]pyrimidine-3,7-dicarboxamide] the figure was 50 to 500 nM.
The same measure, in the same setting: with `COCc1nn2c(C(=O)NCc3ccc(F)cc3)ccnc2c1C(N)=O` [Compound 70, N7-[(4-fluorophenyl)methyl]-2-(methoxymethyl)pyrazolo[1,5-a]pyrimidine-3,7-dicarboxamide] the figure was under 50 nM; with `COCc1nn2c(C(=O)NCc3cccc(F)c3)ccnc2c1C(N)=O` [Compound 71, N7-[(3-fluorophenyl)methyl]-2-(methoxymethyl)pyrazolo[1,5-a]pyrimidine-3,7-dicarboxamide], 50 to 500 nM.
As for `COCc1nn2c(C(=O)NCc3ccc(C)cc3)ccnc2c1C(N)=O` [Compound 72, 2-(methoxymethyl)-N7-(p-tolylmethyl)pyrazolo[1,5-a]pyrimidine-3,7-dicarboxamide], under setting [1], the IC50 is under 50 nM.
As for `COCc1nn2c(C(=O)NC3CCc4ccc(OC)cc4C3)ccnc2c1C(N)=O` (stereo not shown) [Compound 73, 2-(methoxymethyl)-N7-(7-methoxytetralin-2-yl)pyrazolo[1,5-a]pyrimidine-3,7-dicarboxamide], the IC50 under setting [1] was under 50 nM.
The same measure, in the same setting: the figure for `COCc1nn2c(C(=O)N[C@@H]3CCCc4ccccc43)ccnc2c1C(N)=O` [Compound 74, 2-(methoxymethyl)-N7-[(1R)-tetralin-1-yl]pyrazolo[1,5-a]pyrimidine-3,7-dicarboxamide] is under 50 nM; for `COCc1nn2c(C(=O)NC3COc4ccccc43)ccnc2c1C(N)=O` (stereo not shown) [Compound 75, N7-(2,3-dihydrobenzofuran-3-yl)-2-(methoxymethyl)pyrazolo[1,5-a]pyrimidine-3,7-dicarboxamide] it is under 50 nM; for `COCc1nn2c(C(=O)NC3CCCCC3)ccnc2c1C(N)=O` [Compound 76, N7-cyclohexyl-2-(methoxymethyl)pyrazolo[1,5-a]pyrimidine-3,7-dicarboxamide] it is 50 to 500 nM.
In the case of `COCc1nn2c(C(=O)NCC3CC3(C)C)ccnc2c1C(N)=O` (stereo not shown) [Compound 77, N7-[(2,2-dimethylcyclopropyl)methyl]-2-(methoxymethyl)pyrazolo[1,5-a]pyrimidine-3,7-dicarboxamide], the IC50 under setting [1] is 500 to 5000 nM.
`COCc1nn2c(C(=O)NC3COc4ccccc4C3)ccnc2c1C(N)=O` (stereo not shown) [Compound 78, N7-chroman-3-yl-2-(methoxymethyl)pyrazolo[1,5-a]pyrimidine-3,7-dicarboxamide]: the concentration for half-maximal inhibition (IC50) under setting [1] lay within 50 to 500 nM.
The same measure, in the same setting: the figure for `COCc1nn2c(C(=O)N[C@H]3CCc4ccccc4C3)ccnc2c1C(N)=O` [Compound 79, 2-(methoxymethyl)-N7-[(2S)-tetralin-2-yl]pyrazolo[1,5-a]pyrimidine-3,7-dicarboxamide] is under 50 nM; for `COCc1nn2c(C(=O)NC3CCC(F)(F)CC3)ccnc2c1C(N)=O` [Compound 80, N7-(4,4-difluorocyclohexyl)-2-(methoxymethyl)pyrazolo[1,5-a]pyrimidine-3,7-dicarboxamide] it is under 50 nM; for `COCc1nn2c(C(=O)NCC3CC3)ccnc2c1C(N)=O` [Compound 81, N7-(cyclopropylmethyl)-2-(methoxymethyl)pyrazolo[1,5-a]pyrimidine-3,7-dicarboxamide] it is 50 to 500 nM.
On the same count and under the same terms, with `COCc1nn2c(C(=O)NC3CCc4ccc(F)cc4C3)ccnc2c1C(N)=O` (stereo not shown) [Compound 82, N7-(7-fluorotetralin-2-yl)-2-(methoxymethyl)pyrazolo[1,5-a]pyrimidine-3,7-dicarboxamide] the figure was under 50 nM.
Still for that read-out and setting: with `COCc1nn2c(C(=O)NCc3ccc(F)cc3F)ccnc2c1C(N)=O` [Compound 83, N7-[(2,4-difluorophenyl)methyl]-2-(methoxymethyl)pyrazolo[1,5-a]pyrimidine-3,7-dicarboxamide] the figure was under 50 nM; with `COCc1nn2c(C(=O)N[C@H]3CC[C@@H](C)CC3)ccnc2c1C(N)=O` [Compound 84, 2-(methoxymethyl)-N7-(cis-4-methylcyclohexyl)pyrazolo[1,5-a]pyrimidine-3,7-dicarboxamide], 500 to 5000 nM; with `COCc1nn2c(C(=O)NC3Cc4cscc4C3)ccnc2c1C(N)=O` [Compound 85, N7-(5,6-dihydro-4H-cyclopenta[c]thiophen-5-yl)-2-(methoxymethyl)pyrazolo[1,5-a]pyrimidine-3,7-dicarboxamide], under 50 nM.
On to `COCc1nn2c(C(=O)N[C@H]3C[C@H](C)C3)ccnc2c1C(N)=O` [Compound 86, 2-(methoxymethyl)-N7-(trans-3-methylcyclobutyl)pyrazolo[1,5-a]pyrimidine-3,7-dicarboxamide], for which the IC50 under setting [1] was in the range of 50 to 500 nM.
In the case of `COCc1nn2c(C(=O)NC3Cc4ccc(Cl)cc4C3)ccnc2c1C(N)=O` (stereo not shown) [Compound 87, N7-(5-chloroindan-2-yl)-2-(methoxymethyl)pyrazolo[1,5-a]pyrimidine-3,7-dicarboxamide], the IC50 under setting [1] was under 50 nM.
Still for that read-out and setting: with `COCc1nn2c(C(=O)NC3Cc4ccccc43)ccnc2c1C(N)=O` (stereo not shown) [Compound 88, N7-(7-bicyclo[4.2.0]octa-1,3,5-trienyl)-2-(methoxymethyl)pyrazolo[1,5-a]pyrimidine-3,7-dicarboxamide] the figure was under 50 nM; with `COCc1nn2c(C(=O)N3CCN(c4ncccc4C(F)(F)F)CC3)ccnc2c1C(N)=O` [Compound 89, 2-(methoxymethyl)-7-[4-[3-(trifluoromethyl)-2-pyridyl]piperazine-1-carbonyl]pyrazolo[1,5-a]pyrimidine-3-carboxamide], 50000 to 100000 nM.
The same measure, in the same setting: with `COCc1nn2c(C(=O)NCC3(N(C)C)CCCCC3)ccnc2c1C(N)=O` [Compound 90, N7-[[1-(dimethylamino)cyclohexyl]methyl]-2-(methoxymethyl)pyrazolo[1,5-a]pyrimidine-3,7-dicarboxamide] the figure was 50000 to 100000 nM; with `COCc1nn2c(C(=O)NC3Cc4cccc(F)c4C3)ccnc2c1C(N)=O` (stereo not shown) [Compound 91, N7-(4-fluoroindan-2-yl)-2-(methoxymethyl)pyrazolo[1,5-a]pyrimidine-3,7-dicarboxamide], under 50 nM.
Still for that read-out and setting: the figure for `COCc1nn2c(C(=O)NC3Cc4cc(F)cc(F)c4C3)ccnc2c1C(N)=O` (stereo not shown) [Compound 92, N7-(4,6-difluoroindan-2-yl)-2-(methoxymethyl)pyrazolo[1,5-a]pyrimidine-3,7-dicarboxamide] is under 50 nM.
With `COCc1nn2c(C(=O)NC3CNc4ccccc4C3)ccnc2c1C(N)=O` (stereo not shown) [Compound 93, 2-(methoxymethyl)-N7-(1,2,3,4-tetrahydroquinolin-3-yl)pyrazolo[1,5-a]pyrimidine-3,7-dicarboxamide], under setting [1], the IC50 was under 50 nM.
`COCc1nn2c(C(=O)N[C@H]3C[C@](C)(F)C3)ccnc2c1C(N)=O` [Compound 94, N7-(trans-3-fluoro-3-methyl-cyclobutyl)-2-(methoxymethyl)pyrazolo[1,5-a]pyrimidine-3,7-dicarboxamide]: where the note is “hGPR68 IC50, HEK293T cells transiently expressing hGPR68, antagonism of pH 5.5 stimulated cAMP”, the IC50 was 50 to 500 nM.
In the case of `COCc1nn2c(C(=O)N3Cc4ccccc4C3)ccnc2c1C(N)=O` [Compound 95, 7-(isoindoline-2-carbonyl)-2-(methoxymethyl)pyrazolo[1,5-a]pyrimidine-3-carboxamide], the IC50 under setting [1] is 500 to 5000 nM.
Same read-out and setting: with `CCC(CNC(=O)c1ccnc2c(C(N)=O)cnn12)Oc1cccc(C)c1` (stereo not shown) [Compound 96, N7-[2-(3-methylphenoxy)butyl]pyrazolo[1,5-a]pyrimidine-3,7-dicarboxamide] the figure was 5000 to 50000 nM; with `Cc1ccc(-c2ccncc2)cc1NC(=O)c1ccnc2c(C(N)=O)cnn12` [Compound 97, N7-[2-methyl-5-(pyridin-4-yl)phenyl]pyrazolo[1,5-a]pyrimidine-3,7-dicarboxamide], 500 to 5000 nM.
The same measure, in the same setting: the figure for `COc1ccc2[nH]c(C(C)NC(=O)c3ccnc4c(C(N)=O)cnn34)nc2c1` (stereo not shown) [Compound 98, N7-[1-(5-methoxy-1H-1,3-benzodiazol-2-yl)ethyl]pyrazolo[1,5-a]pyrimidine-3,7-dicarboxamide] is 5000 to 50000 nM.
Still for that read-out and setting: with `CC(COc1ccc(C(C)(C)C)cc1)NC(=O)c1ccnc2c(C(N)=O)cnn12` (stereo not shown) [Compound 99, N7-[1-(4-tert-butylphenoxy)propan-2-yl]pyrazolo[1,5-a]pyrimidine-3,7-dicarboxamide] the figure was 5000 to 50000 nM; with `NC(=O)c1cnn2c(C(=O)NCCC(F)(F)F)ccnc12` [Compound 100, N7-(3,3,3-trifluoropropyl)pyrazolo[1,5-a]pyrimidine-3,7-dicarboxamide], 5000 to 50000 nM; with `NC(=O)c1cnn2c(C(=O)NCC3CCC(F)(F)CC3)ccnc12` [Compound 101, N7-[(4,4-difluorocyclohexyl)methyl]pyrazolo[1,5-a]pyrimidine-3,7-dicarboxamide], 500 to 5000 nM.
